Experimental data: PubChem BioAssay AID1963438 (Molecular Pharmacology Branch, DTP, NCI, 2024)
Where “and” joins values, the source holds several entries; their conditions need not be identical. Equal values may be shown once.

System: NCI-H510 multicellular tumor spheroid growth, % test/control
Experiment: Anticancer human tumor NCI-H510 cell line growth inhibition [Asc];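 also: spheroids exposed to agents for 7 days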;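 as to viability, T/C: 100% = DMSO vehicle control wells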
Conditions: for viability, T/C: stronger effect = lower value; active = viability on the fitted dose curve at most 10% of control; inactive = the rest
How it was run: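 Spheroid model: tumor line + HUVEC + hMSC. Single agents and combinations; top conc. at/near clinical Cmax (10 microM if undetermined), half-log dilutions. DMSO stocks at 800-fold test concentration.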

[1] = curve of first compound, second compound 0.01 µM
[2] = curve of first compound, second compound 0.0316 µM
[3] = curve of first compound, second compound 0.1 µM
[4] = curve of first compound, second compound 0.316 µM
[5] = curve of first compound, second compound 1 µM

CNC(C)C(=O)NC1CN(S(=O)(=O)c2cccc(S(=O)(=O)N3CCC4CCC(C(=O)NC(c5ccccc5)c5ccccc5)N4C(=O)C(NC(=O)C(C)NC)C3)c2)CCC2CCC(C(=O)NC(c3ccccc3)c3ccccc3)N2C1=O (configuration not stated)
> 1000 nM: IC50 (compound alone, run of 10/24/2022) | IC50 (compound alone, run of 11/15/2022) | IC50 (curve of compound)
inactive: viability, T/C (compound 0.00316 µM) 103% and 100% and 104% | viability, T/C (compound 0.01 µM) 106% [middle of 14 runs] | viability, T/C (compound 0.0316 µM) 102% [middle of 14 runs] | viability, T/C (compound 0.1 µM) 103% [middle of 14 runs]

Cc1nc(N2CCC3(CC2)COC(C)C3N)c(CO)nc1Sc1ccnc(N)c1Cl (configuration not stated) + CNC(C)C(=O)NC1CN(S(=O)(=O)c2cccc(S(=O)(=O)N3CCC4CCC(C(=O)NC(c5ccccc5)c5ccccc5)N4C(=O)C(NC(=O)C(C)NC)C3)c2)CCC2CCC(C(=O)NC(c3ccccc3)c3ccccc3)N2C1=O
> 3000 nM: IC50 (curve of first compound, second compound 0.00316 µM) | IC50 [1] | IC50 [2] | IC50 [3] | IC50 [4] | IC50 [5]
inactive: viability, T/C (second compound 0.00316 µM, first compound 0.00949 µM) 103% | viability, T/C (second compound 0.00316 µM, first compound 0.03 µM) 95.3% | viability, T/C (second compound 0.00316 µM, first compound 0.0949 µM) 104% | viability, T/C (second compound 0.00316 µM, first compound 0.3 µM) 89% | viability, T/C (second compound 0.00316 µM, first compound 0.949 µM) 98.5% | viability, T/C (second compound 0.00316 µM, first compound 3 µM) 106% | viability, T/C (second compound 0.01 µM, first compound 0.00949 µM) 102% | viability, T/C (second compound 0.01 µM, first compound 0.03 µM) 108% | viability, T/C (second compound 0.01 µM, first compound 0.0949 µM) 99.9% | viability, T/C (second compound 0.01 µM, first compound 0.3 µM) 105% | viability, T/C (second compound 0.01 µM, first compound 0.949 µM) 93.9% | viability, T/C (second compound 0.01 µM, first compound 3 µM) 102% | viability, T/C (second compound 0.0316 µM, first compound 0.00949 µM) 97.9% | viability, T/C (second compound 0.0316 µM, first compound 0.03 µM) 88.3% | viability, T/C (second compound 0.0316 µM, first compound 0.0949 µM) 95.9% | viability, T/C (second compound 0.0316 µM, first compound 0.3 µM) 99.8% | viability, T/C (second compound 0.0316 µM, first compound 0.949 µM) 94.7% | viability, T/C (second compound 0.0316 µM, first compound 3 µM) 111% | viability, T/C (second compound 0.1 µM, first compound 0.00949 µM) 99.3% | viability, T/C (second compound 0.1 µM, first compound 0.03 µM) 99.2% | viability, T/C (second compound 0.1 µM, first compound 0.0949 µM) 109% | viability, T/C (second compound 0.1 µM, first compound 0.3 µM) 88.1% | viability, T/C (second compound 0.1 µM, first compound 0.949 µM) 99.5% | viability, T/C (second compound 0.1 µM, first compound 3 µM) 106% | viability, T/C (second compound 0.316 µM, first compound 0.00949 µM) 91.8% | viability, T/C (second compound 0.316 µM, first compound 0.03 µM) 117% | viability, T/C (second compound 0.316 µM, first compound 0.0949 µM) 94.9% | viability, T/C (second compound 0.316 µM, first compound 0.3 µM) 98.5% | viability, T/C (second compound 0.316 µM, first compound 0.949 µM) 94.7% | viability, T/C (second compound 0.316 µM, first compound 3 µM) 95% | viability, T/C (second compound 1 µM, first compound 0.00949 µM) 106% | viability, T/C (second compound 1 µM, first compound 0.03 µM) 91.1% | viability, T/C (second compound 1 µM, first compound 0.0949 µM) 104% | viability, T/C (second compound 1 µM, first compound 0.3 µM) 94.3% | viability, T/C (second compound 1 µM, first compound 0.949 µM) 90.6% | viability, T/C (second compound 1 µM, first compound 3 µM) 100%

NC1CCC(NC2CC2c2ccccc2)CC1 (configuration not stated) + CNC(C)C(=O)NC1CN(S(=O)(=O)c2cccc(S(=O)(=O)N3CCC4CCC(C(=O)NC(c5ccccc5)c5ccccc5)N4C(=O)C(NC(=O)C(C)NC)C3)c2)CCC2CCC(C(=O)NC(c3ccccc3)c3ccccc3)N2C1=O
inactive: viability, T/C (second compound 0.01 µM, first compound 0.000316 µM) 85.6% | viability, T/C (second compound 0.01 µM, first compound 0.001 µM) 105% | viability, T/C (second compound 0.01 µM, first compound 0.00316 µM) 97.4% | viability, T/C (second compound 0.01 µM, first compound 0.01 µM) 90% | viability, T/C (second compound 0.01 µM, first compound 0.0316 µM) 105% | viability, T/C (second compound 0.01 µM, first compound 0.1 µM) 94.3% | viability, T/C (second compound 0.0316 µM, first compound 0.000316 µM) 98.7% | viability, T/C (second compound 0.0316 µM, first compound 0.001 µM) 96.7% | viability, T/C (second compound 0.0316 µM, first compound 0.00316 µM) 92.3% | viability, T/C (second compound 0.0316 µM, first compound 0.01 µM) 91.6% | viability, T/C (second compound 0.0316 µM, first compound 0.0316 µM) 96.9% | viability, T/C (second compound 0.0316 µM, first compound 0.1 µM) 94.9% | viability, T/C (second compound 0.1 µM, first compound 0.000316 µM) 107% | viability, T/C (second compound 0.1 µM, first compound 0.001 µM) 97.4% | viability, T/C (second compound 0.1 µM, first compound 0.00316 µM) 91.2% | viability, T/C (second compound 0.1 µM, first compound 0.01 µM) 89.8% | viability, T/C (second compound 0.1 µM, first compound 0.0316 µM) 96.9% | viability, T/C (second compound 0.1 µM, first compound 0.1 µM) 97.7% | viability, T/C (second compound 0.316 µM, first compound 0.000316 µM) 99% | viability, T/C (second compound 0.316 µM, first compound 0.001 µM) 106% | viability, T/C (second compound 0.316 µM, first compound 0.00316 µM) 91% | viability, T/C (second compound 0.316 µM, first compound 0.01 µM) 99.9% | viability, T/C (second compound 0.316 µM, first compound 0.0316 µM) 102% | viability, T/C (second compound 0.316 µM, first compound 0.1 µM) 97.8% | viability, T/C (second compound 1 µM, first compound 0.000316 µM) 114% | viability, T/C (second compound 1 µM, first compound 0.001 µM) 106% | viability, T/C (second compound 1 µM, first compound 0.00316 µM) 97.9% | viability, T/C (second compound 1 µM, first compound 0.01 µM) 98.1% | viability, T/C (second compound 1 µM, first compound 0.0316 µM) 94.3% | viability, T/C (second compound 1 µM, first compound 0.1 µM) 101%
> 100 nM: IC50 [1] | IC50 [2] | IC50 [3] | IC50 [4] | IC50 [5]

CCN1C(C(=O)NC23CCC(C(=O)O)(CC2)CC3)C(c2cccc(Cl)c2F)C2(C(=O)Nc3cc(Cl)ccc32)C12CCCCC2 (configuration not stated)
inactive: viability, T/C (compound 0.00949 µM) 103% and 92.8%
> 3000 nM: IC50 (compound alone, run of 10/11/2022) | IC50 (curve of compound)

Cn1ncnc1[C@H]1c2n[nH]c(=O)c3cc(F)cc(c23)N[C@@H]1c1ccc(F)cc1 + CCN1C(C(=O)NC23CCC(C(=O)O)(CC2)CC3)C(c2cccc(Cl)c2F)C2(C(=O)Nc3cc(Cl)ccc32)C12CCCCC2
10.4 nM: IC50 (curve of first compound, second compound 0.949 µM)
active: viability, T/C (second compound 0.3 µM, first compound 0.1 µM) 5.7% | viability, T/C (second compound 0.949 µM, first compound 0.1 µM) 7.16% | viability, T/C (second compound 3 µM, first compound 0.0316 µM) 6.31% | viability, T/C (second compound 3 µM, first compound 0.1 µM) 10.2%
15.6 nM: IC50 (curve of first compound, second compound 0.3 µM)
9.02 nM: IC50 (curve of first compound, second compound 0.0949 µM)
inactive: viability, T/C (second compound 0.03 µM, first compound 0.000316 µM) 114% | viability, T/C (second compound 0.03 µM, first compound 0.001 µM) 93.8% | viability, T/C (second compound 0.03 µM, first compound 0.00316 µM) 77.3% | viability, T/C (second compound 0.03 µM, first compound 0.01 µM) 49.5% | viability, T/C (second compound 0.03 µM, first compound 0.0316 µM) 6.92% | viability, T/C (second compound 0.03 µM, first compound 0.1 µM) 18.1% | viability, T/C (second compound 0.0949 µM, first compound 0.000316 µM) 105% | viability, T/C (second compound 0.0949 µM, first compound 0.001 µM) 97.6% | viability, T/C (second compound 0.0949 µM, first compound 0.00316 µM) 95.4% | viability, T/C (second compound 0.0949 µM, first compound 0.01 µM) 45.4% | viability, T/C (second compound 0.0949 µM, first compound 0.0316 µM) 14.7% | viability, T/C (second compound 0.0949 µM, first compound 0.1 µM) 10.9% | viability, T/C (second compound 0.3 µM, first compound 0.000316 µM) 104% | viability, T/C (second compound 0.3 µM, first compound 0.001 µM) 128% | viability, T/C (second compound 0.3 µM, first compound 0.00316 µM) 96.6% | viability, T/C (second compound 0.3 µM, first compound 0.01 µM) 75.8% | viability, T/C (second compound 0.3 µM, first compound 0.0316 µM) 9.76% | viability, T/C (second compound 0.949 µM, first compound 0.000316 µM) 92.5% | viability, T/C (second compound 0.949 µM, first compound 0.001 µM) 118% | viability, T/C (second compound 0.949 µM, first compound 0.00316 µM) 100% | viability, T/C (second compound 0.949 µM, first compound 0.01 µM) 50.9% | viability, T/C (second compound 0.949 µM, first compound 0.0316 µM) 13.4% | viability, T/C (second compound 3 µM, first compound 0.000316 µM) 109% | viability, T/C (second compound 3 µM, first compound 0.001 µM) 88.8% | viability, T/C (second compound 3 µM, first compound 0.00316 µM) 102% | viability, T/C (second compound 3 µM, first compound 0.01 µM) 64%
13.4 nM: IC50 (curve of first compound, second compound 3 µM)
7.83 nM: IC50 (curve of first compound, second compound 0.03 µM)
